Assay: Gastrointestinal absorption of insulin, rat intestinal loop, plasma glucose (Experiment 1)
Assay type: in vivo, Wistar male rats
Experimental: Then 0.25 ml blood was collected from the jugular vein 0, 0.5, 1, 1.5, 2 and 3 hours after administration and the plasma glucose concentration was determined. The reduction in the plasma glucose concentration (D, % of initial*h) up to three hours after administration was calculated with the plasma glucose concentration before administration being 100. D was calculated by subtracting the plasma glucose area under concentration (% of initial*h) up to 3 hours after administration from the AUC with administration of normal saline only.
On the other hand, by way of comparison, a liquid of 6 mg bovine insulin dissolved in 20 ml normal saline liquid was administered to a large intestine loop in an amount corresponding to 600 μg/kg insulin, or as the control, 2 ml normal saline were administered to a large intestine loop and the plasma glucose concentration was determined as described above (Glucose CII Test Wako, Wako Pure Chemical Industries, Ltd.).

Substance: Comparison (E-SD not administered): 6 mg bovine insulin dissolved in 20 ml normal saline, without E-SD
- AUC (plasma glucose) (rat intestinal loop, up to 3 hours after administration): 368.84 ± 63.19 % of initial*h
- D (reduction in the plasma glucose concentration) (up to 3 hours, AUC with normal saline only minus AUC): 13.00 % of initial*h

From patent US7923025B2, “Pharmaceutical composition for oral use with improved absorption” (Astellas Pharma Inc., priority 2003, dated 2011)
